US8492404B2, “Bis-aryl amide compounds and methods of use” (Amgen Inc., priority 2005, dated 2013)

How the values were obtained:
c-kit kinase enzyme = biological target: T1, c-kit kinase enzyme (Homo sapiens, UniProt P10721); assay: cKIT-Homogeneous Time Resolved Fluorescent (HTRF) Kinase Assay; type: biochemical; details: read-out: average IC50 value for the inhibition of the c-kit kinase enzyme
T1 construct: cKIT (6.25 μM) (catalytic domain, N-terminal GST tagged, unphosphorylated)
Experimental: cKIT-Homogeneous Time Resolved Fluorescent (HTRF) Kinase Assay:
The purpose of this assay is to measure the inhibition of cKIT enzyme activity (autophosphorylation and phosphorylation of substrate) by small molecule test compounds. The cKIT HTRF assay begins with cKIT-catalyzed phosphorylation of biotinylated peptide Her-2 (N-[…]-C) in the presence of ATP. The cKIT enzyme reaction is comprised of 1 μL of compound in 100% DMSO, 15 μL of 2× substrate mix (50 μM ATP and 2 μM biotinylated Her-2) and 15 μL of 2× cKIT (6.25 μM) (catalytic domain, N-terminal GST tagged, unphosphorylated) in 4 mM DTT all diluted in enzyme buffer (25 mM HEPES pH 7.5, 12.5 mM NaCl, 50 mM MgCl, 0.05% BSA). The reaction incubates for 90 min at room temperature. One-hundred and sixty microliters of detection mixture containing 0.47 μg/mL steptavidin allophycocyanin and 29.7 pM europylated anti-phosphotyrosine Ab (PT66, Perkin Elmer) in HTRF buffer (100 mM Hepes pH 7.5, 100 mM NaCl, 0.1% BSA, 0.05% Tween 20) is then added to stop the reaction by diluting out the enzyme as well as to enable quantitation of phosphorylated Her-2. After 3 h at room temperature, the detection reaction is read in a Packard Discovery™ (model BD1000) plate reader. The wells are excited with coherent […] light and the ratio of delayed ([…] post excitation) emissions at […] (native europium fluorescence) and 665 nm (europium fluorescence transferred to allophycocyanin—an index of substrate phosphorylation) is determined. The proportion of substrate phosphorylated in the kinase reaction in the presence of compound compared with that phosphorylated in the presence of DMSO vehicle alone (HI control) is calculated using the formula: % control (POC)=(cpd−average LO)/(average HI−average LO)*100. Data (consisting of POC and inhibitor concentration in μM) is fitted to a 4-parameter equation (y=A+((B−A)/(1+((x/C)^D))), where A is the minimum y (POC) value, B is the maximum y (POC), C is the x (cpd concentration) at the point of inflection and D is the slope factor) using a Levenburg-Marquardt non-linear regression algorithm.

Lck kinase enzyme = biological target: T2, Lck kinase enzyme (Homo sapiens, UniProt P06239); assay: LCK-Homogeneous Time Resolved Fluorescent (HTRF) Kinase Assay; type: biochemical; details: read-out: average IC50 value for the inhibition of the Lck kinase enzyme
T2 construct: LCK KD GST (225-509); GST
Experimental: LCK-Homogeneous Time Resolved Fluorescent (HTRF) Kinase Assay:
The LCK HTRF assay begins with LCK in the presence of ATP phosphorylating the biotinylated peptide Gastrin. The reaction incubates for 90 min. To quench the assay detection reagents are added which both stop the reaction by diluting out the enzyme and chelating the metals due to the presence of EDTA. Once the detection reagents are added the assay incubates for 30 min to allow for equilibration of the detection reagents. […] Buffer conditions are as follows: 50 mM HEPES pH 7.5, 50 mM NaCl, 20 mM MgCl, 5 mM MnCl, 2 mM DTT, 0.05% BSA.
The assay is quenched and stopped with 160 μL of detection reagent. Detection reagents are as follows: Buffer made of 50 mM Tris, pH 7.5, 100 mM NaCl, 3 mM EDTA, 0.05% BSA, 0.1% Tween20.
The assay plate is read in either a Discovery or a RubyStar.

T1 sequence (P10721 589-937 limits assumed): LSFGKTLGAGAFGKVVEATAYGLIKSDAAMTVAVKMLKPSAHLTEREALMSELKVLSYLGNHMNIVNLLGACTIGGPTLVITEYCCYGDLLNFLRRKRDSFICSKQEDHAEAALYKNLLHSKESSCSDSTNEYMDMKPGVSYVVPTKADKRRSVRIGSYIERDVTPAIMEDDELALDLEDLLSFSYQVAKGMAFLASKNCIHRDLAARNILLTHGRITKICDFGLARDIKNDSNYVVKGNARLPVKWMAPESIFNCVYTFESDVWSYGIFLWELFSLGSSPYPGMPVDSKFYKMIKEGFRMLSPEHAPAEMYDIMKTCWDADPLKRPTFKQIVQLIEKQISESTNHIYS
T2 sequence (P06239 225-509): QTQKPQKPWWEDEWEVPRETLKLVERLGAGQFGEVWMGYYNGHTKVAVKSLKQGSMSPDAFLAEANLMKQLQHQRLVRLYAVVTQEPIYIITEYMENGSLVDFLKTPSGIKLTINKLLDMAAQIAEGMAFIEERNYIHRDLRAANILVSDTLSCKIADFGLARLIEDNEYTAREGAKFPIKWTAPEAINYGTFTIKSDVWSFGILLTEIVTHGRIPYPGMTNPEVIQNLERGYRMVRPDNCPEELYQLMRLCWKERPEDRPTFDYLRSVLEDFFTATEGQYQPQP

| Structure (SMILES) | IC50 (c-kit kinase enzyme) [µM] | IC50 (Lck kinase enzyme) [µM] |
| --- | --- | --- |
| Cc1ccc(NC(=O)c2ccc3[nH]ccc3c2)cc1C(=O)Nc1cnc(N)nc1 [Example 110, N-(3-((2-aminopyrimidin-5-yl)carbamoyl)-4-methylphenyl)-1H-indole-5-carboxamide] | ≤ 10 |  |
| Cc1ccc(NC(=O)c2cc(I)ccc2O)cc1C(=O)Nc1cnc(Nc2ccc(N3CCN(C)CC3)cc2)nc1 [Example 112, 2-hydroxy-5-iodo-N-(4-methyl-3-(((2-((4-(4-methyl-1-piperazinyl)phenyl)amino)-5-pyrimidinyl)amino)carbonyl)phenyl) benzamide] | ≤ 10 |  |
| Cc1ccc(C(=O)NCCC2CCCCC2)cc1C(=O)Nc1ccc(N)nc1 [Example 182, N~3~-(6-amino-3-pyridinyl)-N~1~-(2-cyclohexylethyl)-4-methyl-1,3-benzenedicarboxamide] | ≤ 10 |  |
| Cc1ccc(NC(=O)c2cc3ccccc3n2C)cc1C(=O)Nc1cnc(Nc2ccc(N3CCN(C)CC3)cc2)nc1 [Example 96, 1-methyl-N-(4-methyl-3-((2-(4-(4-methylpiperazin-1-yl)phenylamino)pyrimidin-5-yl)carbamoyl)phenyl)-1H-indole-2-carboxamide] | ≤ 10 | ≤ 10 |
| Cc1ccc(NC(=O)c2csc(-c3cccs3)n2)cc1C(=O)Nc1cnc(Nc2ccc(N3CCN(C)CC3)cc2)nc1 [Example 141] | ≤ 10 |  |
| Cc1ccc(NC(=O)c2ccc(Cl)c(C(F)(F)F)c2)cc1C(=O)Nc1cnc(Nc2ccc(N3CCN(C)CC3)cc2)nc1 [Example 113, 4-chloro-N-(4-methyl-3-(((2-((4-(4-methyl-1-piperazinyl)phenyl)amino)-5-pyrimidinyl)amino)carbonyl)phenyl)-3-(trifluoromethyl) benzamide] | ≤ 10 |  |
| Cc1ccc(C(=O)NCCC2CCCC2)cc1C(=O)Nc1ccc(NC(=O)c2c[nH]cn2)nc1 [Example 206, N~1~-(2-cyclopentylethyl)-N~3~-(6-((1H-imidazol-4-ylcarbonyl)amino)-3-pyridinyl)-4-methyl-1,3-benzenedicarboxamide] | ≤ 10 |  |
| Cc1ccc(NC(=O)c2ccc3ncsc3c2)cc1C(=O)Nc1cnc(N)nc1 [Example 109, N-(3-((2-aminopyrimidin-5-yl)carbamoyl)-4-methylphenyl)benzo[d] thiazole-6-carboxamide] | ≤ 10 |  |
| Cc1ccc(NC(=O)c2cccc(C(F)(F)F)c2)cc1C(=O)Nc1cnc(NCCN2CCOCC2)nc1 [Example 2] | ≤ 10 |  |
| Cc1ccc(NC(=O)Nc2cccc(C(F)(F)F)c2)cc1C(=O)Nc1cncnc1 [Example 88, 1-(4-methyl-3-(pyrimidin-5-ylcarbamoyl)phenyl)-3-(3-(trifluoromethyl)phenyl)urea] | ≤ 10 | ≤ 10 |
| Cc1ccc(NC(=O)c2cccc(C(F)(F)F)c2)cc1C(=O)Nc1cnc(N)nc1 [Example 1, N-(2-amino-5-pyrimidinyl)-2-methyl-5-(((3-(trifluoromethyl)phenyl)carbonyl)amino)benzamide] | ≤ 10 |  |
| Cc1ccc(NC(=O)Nc2cccc(C(F)(F)F)c2)cc1C(=O)Nc1cnc(N)nc1 [Example 90, N-(2-amino-5-pyrimidinyl)-2-methyl-5-((((3-(trifluoromethyl)phenyl)amino)carbonyl)amino)benzamide] | ≤ 10 |  |
